The values that follow come from patent US11447533B2, “Antimicrobial and anticancer peptides and conjugates and compositions, methods, articles and kits relating thereto” (George Mason Research Foundation, Inc., priority 2018, dated 2022).

Where only a bound is given, the exact number is not on record here.

The subject of data set [1] is primary lung epithelium cells. Put plainly: Cytotoxicity (Alamar blue). The data set is classed as cell-based, human. As to the method:
FIGS. 11A-11B are graphs showing cytotoxicity against primary lung epithelium cells in serum-free condition. Cells were seeded in complete growth medium (Minimal essential medium supplemented with 10% fetal bovine serum) at near-confluence into a 96-well plate and allowed to settle for 24-hours. Media was then replaced to OptiMEM I reduced serum medium containing peptide or vehicle alone (DBPS) and cells were incubated overnight (16 hours). A resazurin based dye (Alamar blue) was added directly to media and conversion of resazurin to resorufin was evaluated following two hours. % Survival represents the proportion of viable cells in peptide treated cells relative to cells treated with vehicle alone. […] Each peptide was tested in triplicate.
FIG. 12 is a graph showing comparison of toxicities against Lung Primary Epithelial cells and Lung Cancerous Epithelial Cells, derived from H358 cell-line. […] Each peptide was tested in triplicate.
Cytotoxicity. Cells were seeded in complete growth medium (Minimal Essential Medium, MEMα, supplemented with 10% Fetal Bovine Serum) into a culture-treated 96-well plate at a density of 25000 cells per well. After 24 hours, culture media was aspirated and replaced with media containing the selected peptide. No-serum experiments were conducted in Opti-MEM I reduced serum media (ThermoFisher, 31985062) and 10% serum experiments were performed in complete growth medium. In all cases, DBPS was used as a vehicle only control and buffer to serially dilute the peptides. After exposure to the peptides or vehicle-alone for the defined period, Alamar blue dye (resazurin) was added directly to the media and allowed to incubate for two hours. Following incubation, A570/A600 measurements were made to calculate reduction of resazurin dye to resorufin. A ratio of reduction in treated versus untreated cells was calculated in order to determine overall cell viability. The human cells were always maintained in a 37° C. incubator under 5% CO2.

In data set [2] the test system is leucocytes and T-cells. As to conditions: cited from earlier work.
In data set [3] the test system is B. cereus ATCC 11778. Put plainly: Antimicrobial efficacy (resazurin virtual colony count). The data set is classed as cell-based, Bacillus cereus. As to conditions: DPBS. As to the method:
Antimicrobial Studies. The phosphate buffers used for antimicrobial assays were supplemented with non-nitrogenous energy source, 0.1% (w/v) glucose. To conduct antimicrobial assays, bacterial strains were first suspended in respective buffers. E. coli (ATCC 25922) and B. cereus (ATCC 11778) were grown in MHB II up to OD600 nm˜1 and stored as frozen stock in 20% glycerol at −80° C. Occasionally they were thawed and enumerated by serial dilution and spreading on MHB II agar plates. The concentrations of the frozen stocks of E. coli and B. cereus strains were 1.0-1.1*10^8 CFU/mL with OD600 nm˜0.8. In case of other bacterial strains, they were grown on the days of experiment up to OD600 nm˜1-1.5 and then adjusted to OD600 nm˜0.8. The growth media of the drug-resistant bacterial strains were supplemented with few of the respective antibiotics against which they are resistant. […]
(§1) Antimicrobial assays in different phosphate buffers and serum were conducted by adapting, with necessary modifications a fast high-throughput method based on Virtual Colony Count technique and later modified by incorporating the use of resazurin. At first serial dilution of a microbial strain in respective buffer was poured in the wells of 96 well polypropylene microplate and was then added with same volume of 2× MHB II supplemented with 80 μg/mL resazurin and incubated at 35° C. in a Gemini EM Microplate Reader (Molecular Devices) overnight with intermittent shaking. As the microbe grows it reduces non-fluorescent resazurin to fluorescent resorufin and the fluorescent intensity of each well were measured (excitation=570 nm, emission=590 nm) each 5 min for 15 hours. The time (t, min) to reach a certain fluorescence (RFU=20000 with respect to the starting fluorescence) was correlated with the initial bacterial concentration (in CFU/mL) in the particular well to obtain a calibration plot of the form: Log([Bacteria],CFU/mL)=b+m*t Equation 4: […]
(In general: Resazurin is reduced to fluorescent resorufin, in cell work by metabolically active cells.)

Data set [4] concerns E. coli ML35p outer membrane. Put plainly: Outer membrane disruption (β-lactamase leakage, nitrocefin). The data set is classed as cell-based, Escherichia coli. As to conditions: DPBS; HCMAB = 100%. The procedure:
(§2) Interactions with Bacterial Membranes. Interaction of the peptides with bacterial membranes in different phosphate buffers were evaluated using E. coli ML35p, constructed in our laboratory. At first, competent cells of E. coli ML35 were produced by conventional competent cell preparation method, then transformed with pBR322 plasmid. Transformed colonies were selected after growing on Luria-agar containing 50 μg/mL ampicillin. A single transformed colony was grown in presence of ampicillin first in Luria broth and then in MHBII and stored as 20% glycerol stock at −80° C. This frozen stock, on the day of the experiment, was thawed and grown in MHBII containing ampicillin up to OD600 nm=0.8-0.9, washed with PBS and then suspended in the respective buffer up to the required OD600 nm for use.
Membrane Disruptions. The outer and the inner membrane disruptions by the peptides were evaluated by incubating bacterial suspension with peptides and then measuring the activity of enzymes leaked out of the cells. 100 μL of 10× concentration of peptide in water was incubated with 900 μL bacterial suspension (OD600 nm˜0.1) in respective buffer for 3 hours at room temperature with gentle rotation. Then the cells and debris were separated by centrifugation (10000 r.p.m. for 30 mins) and the supernatant was collected and tested for activity of enzymes that had leaked out of the bacterial cells. HCMAB was used as a positive control to cause 100% membrane disruption and water as a negative causing 0% disruption.
The outer membrane disruption was tested by using the activity of beta-lactamase present in the periplasmic space of E. coli ML35p. Peptides when disrupt the outer membrane enough to cause beta-lactamase to come out, the degree of disruption can be measured by the virtue of the kinetics of the enzyme and using a chromogenic cephalosporin substrate called nitrocefin. β-lactamase mediated hydrolyzed product of nitrocefin has an absorbance αmax=486 nm. Supernatant collected from the incubation of peptide with bacteria was added with nitrocefin solution in DPBS and incubated at 35° C. and continuous absorbance readings. The slope of the linear section of the absorbance curve (absorbance vs time), was used as a measure of membrane disruption and the % Disruption was calculated as: Equation 7: […]
Some of the ATRA1-variants were further tested for their ability to disrupt outer and inner membranes to form pores or disruptions sufficiently large so as to allow enzymes to leak out of their cellular compartments (cytoplasm or periplasmic space). For this purpose, two reporter molecules were used with one being the substrate of a cytoplasmic enzyme and the other was a substrate for an enzyme residing in the periplasmic space. One of the reporters, nitrocefin was the substrate for β-lactamase, which is present in the bacterial periplasm, whereas the other molecule, ONPG, was the substrate for β-galactosidase, which resides in the cytoplasm of E. coli ML35p strain. […] Similarly, β-galactosidase activity in the supernatants is evidence of inner membrane disruption and possible pore formation. When the aforesaid supernatants were tested for nitrocefin and ONPG hydrolysis, the corresponding absorbance increased with time (data not shown) indicating β-lactamase and β-galactosidase activity, respectively, and thus disruption of both the inner and outer membranes. The slopes of the increase in absorbance as a function of time provides the rate of enzyme activity. The enzyme activities in supernatants collected after incubation of bacteria with the quaternary ammonium surfactant, hexadecyltrimethylammonium bromide (HCMAB) was used as an internal reference for 100% membrane disruption. Enzyme activity for supernatants collected for cells incubated in the absence of peptide provided a reference for 0% membrane disruption. Bee venom peptide melittin was used as a positive control. […]

Data set [5] relates to E. coli ATCC 25922. In words: Antimicrobial efficacy (resazurin virtual colony count). The data set is classed as cell-based, Escherichia coli. The procedure:
(§3) Antimicrobial Studies. The phosphate buffers used for antimicrobial assays were supplemented with non-nitrogenous energy source, 0.1% (w/v) glucose. To conduct antimicrobial assays, bacterial strains were first suspended in respective buffers. E. coli (ATCC 25922) and B. cereus (ATCC 11778) were grown in MHB II up to OD600 nm˜1 and stored as frozen stock in 20% glycerol at −80° C. Occasionally they were thawed and enumerated by serial dilution and spreading on MHB II agar plates. The concentrations of the frozen stocks of E. coli and B. cereus strains were 1.0-1.1*10^8 CFU/mL with OD600 nm˜0.8. In case of other bacterial strains, they were grown on the days of experiment up to OD600 nm˜1-1.5 and then adjusted to OD600 nm˜0.8. The growth media of the drug-resistant bacterial strains were supplemented with few of the respective antibiotics against which they are resistant. 200 μL of the 0.8 OD600 nm culture were added to 10 mL of the respective buffer to obtain a suspension which was used to incubate with equal volumes of peptide solution in the same buffer.
as §1
(§4) To obtain antimicrobial efficacy of the peptides, 50 μL of serially diluted peptide in a buffer was incubated with 50 μL microbial suspension in the same buffer for 3 hours in black polypropylene 96 well plate. After incubation the wells were added with 100 μL of 2× MHB II supplemented with 80 μg/mL resazurin and then incubated with continuous fluorescence reading for overnight time period as described earlier. The surviving microbial population (CFU/mL) in each well were calculated by first finding the time to reach a fluorescence of RFU=20000 and the correlation (4) for the specific microbial strain and buffer. % Survival represents the proportion of viable cells in peptide treated cells relative to cells treated with the respective buffer alone. Equation 5: […]
Finally, the antimicrobial effectiveness of each peptide against the particular microbial strain in the specific buffer was determined by plotting % microbial survival as a function of the log of the concentration of the peptide and fitting the resulting data to a variable-slope sigmoidal regression model (equation 6). In this equation, log(EC50) represents the log of the concentration of the peptide required to kill half of the microbial population, where Smin and Smax correspond to the minimal and maximal microbial survival values (respectively), and H, Hill slope, is the parameter defining the steepness of the transition slopes of sigmoidal survival curves. % Microbial survival=Smin+(Smax−Smin)/(1+10^log(EC^50^)-log[peptide]*H) Equation 6: […]
The antimicrobial efficacies of the peptides were first tested against the model Gram-negative bacteria, E. coli ATCC 25922, in different phosphate buffers having varied ionic strengths and compositions. The phosphate buffers that were used included 10 mM sodium phosphate (calculated ionic strength˜25 mM), PBS and DPBS. […]

In data set [6] the test system is E. coli ML35p outer membrane. Put plainly: NPN assay, outer membrane perturbation. The data set is classed as cell-based, Escherichia coli. Particulars: PBS; 25 μM peptide; 25 μM PMB = 100%. The procedure: as §2
NPN Assay. The outer membrane perturbation of bacteria was evaluated by incubating E. coli ML35p with peptides in presence of NPN. 100 mM NPN in acetone was supplemented proportionately to a bacterial suspension of OD600 nm˜0.5 to achieve a final concentration of 20 μM of NPN and the mixture was equilibrated for 30 mins. Then, 90 μL of the bacterial suspension containing 20 μM NPN was added with 10 μL of 250 μM peptide (10×) solution in water and scanned for fluorescence intensity (excitation=350 nm, emission=420 nm). The % Perturbation was calculated by considering PMB to be causing 100% Perturbation and water (without peptide) as 0% Perturbation. Each peptide was tested in triplicate in each of the three phosphate buffers used.
When peptides partition from the bulk aqueous environment to the cellular membranes, they may cause small defects in the membrane organization, a signature of adsorption of the peptides into the membranes. Such small defects are called membrane perturbations and can be evaluated by utilizing molecular probes. One such molecular probe is NPN, which is a hydrophobic molecule and is usually repelled to enter the hydrophobic interiors of the membrane by the polar headgroups of membrane-lipids. However, when small defects and gaps are caused during the adsorption of the peptides into the membranes, NPN can enter through those defects and in the hydrophobic environment of the membrane interior the molecule fluoresces, which can be measured for quantification of the extent of membrane-perturbation and peptide adsorption in the cellular membrane.

Data set [7] relates to Pseudomonas aeruginosa. In words: Antimicrobial efficacy against ESKAPE pathogens. The data set is classed as cell-based. As to conditions: mammalian serum. The procedure: as §3, §1, §4
Finally, the antimicrobial effectiveness of each peptide against the particular microbial strain in the specific buffer was determined by plotting % microbial survival as a function of the log of the concentration of the peptide and fitting the resulting data to a variable-slope sigmoidal regression model (equation 6). […]
ATRA1-R3W2-HYD, NA-CATH and PMB were evaluated for their effectiveness in mammalian serum conditions against pathogenic bacteria of both normal and drug-resistant strains. […]

Where [8] appears, read: ~16 hours (overnight), reduced serum conditions.

As to `CC[C@H](C)[C@H](NC(=O)[C@H](CCCCN)NC(=O)[C@H](CCC(=O)O)NC(=O)[C@H](CCCCN)NC(=O)[C@H](CO)NC(=O)[C@H](CCCCN)NC(=O)[C@H](CCCNC(=N)N)NC(=O)[C@H](Cc1ccccc1)NC(=O)[C@H](Cc1ccccc1)NC(=O)[C@H](CC(=O)O)NC(=O)CNC(=O)[C@H](CC(C)C)NC(=O)[C@@H](N)CC(C)C)C(=O)NCC(=O)N[C@@H](CCCCN)C(=O)N[C@@H](CCC(=O)O)C(=O)N[C@@H](Cc1ccccc1)C(=O)N[C@@H](CCCCN)C(=O)N[C@@H](CCCNC(=N)N)C(=O)N[C@H](C(=O)N[C@H](C(=O)N[C@@H](CCC(N)=O)C(=O)N[C@@H](CCCNC(=N)N)C(=O)N[C@H](C(=O)N[C@@H](CCCCN)C(=O)N[C@@H](CC(=O)O)C(=O)N[C@@H](Cc1ccccc1)C(=O)N[C@@H](CC(C)C)C(=O)N[C@@H](CCCNC(=N)N)C(=O)N[C@@H](CC(N)=O)C(=O)N[C@@H](CC(C)C)C(=O)N[C@H](C(=O)N1CCC[C@H]1C(=O)N[C@@H](CCCNC(=N)N)C(=O)N[C@H](C(=O)N[C@@H](CCC(=O)O)C(=O)N[C@@H](CO)C(=O)O)[C@@H](C)O)C(C)C)[C@@H](C)CC)C(C)C)[C@@H](C)CC` [LL37], the “concentration over which toxicity was exhibited” value in data set [1] (~6 hours, 10% fetal bovine serum) is greater than 10 µM. Further, in data set [1] (setting [8]), the “concentration over which significant toxicity was observed” value was “Over 10 μM” and the “cytotoxicity, in words” value is on record as “higher degrees of cytotoxicity”. Moreover, the “concentrations of significant cytotoxicity” value in data set [2] was 13 to 25 µM.
Consider KRFKKFFKKFK (SEQ ID NO: 11) [ATRA1-F], for which the “antimicrobial efficacy, in words” value in data set [3] was “somewhat effective”; in data set [5] (DPBS (with Ca++ and Mg++), pH 7.4) it was “lost activity in DPBS”; in data set [5] (PBS (high / physiologically relevant ionic strength), pH 7.4), “more effective than ATRA1”. In data set [4], the “outer membrane disruption (β-lactamase activity) relative to HCMAB” value is reported as “intermediate”. Besides, in data set [6], the “membrane perturbation with respect to PMB” value was “decreased slightly”.
With Polymyxin B [PMB, reference compound], the “concentration over which significant toxicity was observed” value in data set [1] (setting [8]) was greater than 6 µM. The “antimicrobial effectiveness, in words” value in data set [7] is on record as “effective”. Besides, the “increase of EC50 in presence of albumin relative to EC50 in DPBS” value in data set [5] (DPBS + 4% (w/v) bovine serum albumin versus DPBS) is “approximately 3 fold”. Also, the “antimicrobial efficacy, in words” value in data set [5] (serum) is “retained significant antimicrobial activities”.
